From patent publication US10519177B2, “Heterocyclic compounds and uses thereof” (Plexxikon Inc., priority 2013, dated 2019)
Where two headings read alike, the source gives them in different places.

How the values were obtained:
bromodomain = experiment: at least one of the bromodomain cell assays of Example 57; format: cell-based; settings: at least one of the bromodomain cell assays described in Example 57; read-out: IC50 in at least one of the bromodomain cell assays
BRD4-BD12 (1-477) = BRD4-BD12 (1-477) (Homo sapiens (Human), UniProt O60885); experiment: Alphascreen binding assay BRD4-BD12; settings: BRD4(1 2) H4; read-out: Biochemical activity (IC50 μM) BRD4(1 2) H4
In short: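 In this competition format, compounds displace a biotinylated tetra-acetyl H4 peptide from E. coli-expressed human BRD4 bromodomain constructs captured on nickel chelate beads. The reaction runs at pH 7.5 with 2 mM DTT and detergent for 1 h at room temperature before a 30 min bead step.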

MV-4-11 cells = experiment: Oncology cell growth assay MV-4-11 (CellTiter Glo); format: cell-based; settings: Homo sapiens, MV4-11, 72 h, read-out: Cell activity (IC50 μM) MV-4-11 3d-Growth
In short: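 Growth read by CellTiter Glo luminescence after 72 h compound treatment of MLL-AF4-bearing MV-4-11 cells (3000/well). Titration: 8 points, 1:3 steps, maximum 10 μM, 0.2% DMSO final. Data normalized to DMSO wells, four-parameter fit gives pIC50.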

Compound	IC50 (bromodomain) [nM]	IC50 (BRD4-BD12 (1-477)) [µM]	IC50 (MV-4-11 cells) [µM]	IC50 (MV-4-11 cells; MV-4-11, 3d growth) [µM]
[2H]C([2H])(C1CCC(F)(F)CC1)n1cc(-c2cnc(N)nc2)c2ncc(-c3c(C)noc3C)cc21 [P-0348, 5-[1-[dideuterio-(4,4-difluorocyclohexyl)methyl]-6-(3,5-dimethylisoxazol-4-yl)pyrrolo[3,2-b]pyridin-3-yl]pyrimidin-2-amine]	< 10000	< 1	< 1	–
Cc1noc(C)c1-c1cnc2c(-c3ccc(C(=O)O)cc3)cn(C(c3ccccn3)c3ccccn3)c2c1 [P-0576, 4-[1-[bis(2-pyridyl)methyl]-6-(3,5-dimethylisoxazol-4-yl)pyrrolo[3,2-b]pyridin-3-yl]benzoic acid]	< 10000	< 1	–	< 1
Cc1noc(C)c1-c1cnc2[nH]cc(C(O)(c3ccccn3)c3ccccn3)c2c1 [P-0545, [5-(3,5-dimethylisoxazol-4-yl)-1H-pyrrolo[2,3-b]pyridin-3-yl]-bis(2-pyridyl)methanol]	< 10000	< 1	–	< 1
Cc1noc(C)c1-c1cnc2c(-c3ccc(C(=O)O)cc3)cn(CC3CCCCCCC3)c2c1 [P-0579, 4-[1-(cyclooctylmethyl)-6-(3,5-dimethylisoxazol-4-yl)pyrrolo[3,2-b]pyridin-3-yl]benzoic acid]	< 10000	< 1	–	< 1
Cc1noc(C)c1-c1cnc2c(-c3ccc(N)nc3)cn(CC3CCC(F)(F)CC3)c2c1 [P-0401, 5-[1-[(4,4-difluorocyclohexyl)methyl]-6-(3,5-dimethylisoxazol-4-yl)pyrrolo[3,2-b]pyridin-3-yl]pyridin-2-amine]	< 10000	< 1	< 1	–
[2H]C([2H])(C1CCC(F)(F)CC1)n1cc(-c2ccnc(C3CC3)c2)c2ncc(-c3c(C)noc3C)cc21 [P-0341, 4-[3-(2-cyclopropyl-4-pyridyl)-1-[dideuterio-(4,4-difluorocyclohexyl)methyl]pyrrolo[3,2-b]pyridin-6-yl]-3,5-dimethyl-isoxazole]	< 10000	< 1	< 1	–
Cc1noc(C)c1-c1cnc2c(-c3ccc(F)c(C(=O)O)c3)cn(CC3CCC(F)(F)CC3)c2c1 [P-0414, 5-[1-[(4,4-difluorocyclohexyl)methyl]-6-(3,5-dimethylisoxazol-4-yl)pyrrolo[3,2-b]pyridin-3-yl]-2-fluoro-benzoic acid]	< 10000	< 1	< 1	–
Cc1noc(C)c1-c1cnc2c(-c3ccc(C#N)nc3)cn(CC3CCC(F)(F)CC3)c2c1 [P-0594, 5-[1-[(4,4-difluorocyclohexyl)methyl]-6-(3,5-dimethylisoxazol-4-yl)pyrrolo[3,2-b]pyridin-3-yl]pyridine-2-carbonitrile]	< 10000	< 1	–	< 1
Cc1noc(C)c1-c1cnc2c(-c3cnn(CC(F)(F)F)c3)cn([C@@H](C)c3ccccn3)c2c1 [P-0512, 3,5-dimethyl-4-[1-[(1S)-1-(2-pyridyl)ethyl]-3-[1-(2,2,2-trifluoroethyl)pyrazol-4-yl]pyrrolo[3,2-b]pyridin-6-yl]isoxazole]	< 10000	< 1	–	< 1
Cc1noc(C)c1-c1cnc2c(-c3cccc(S(=O)(=O)NC4CC4)c3)cn(CC3(F)CCCCC3)c2c1 [P-0490, N-cyclopropyl-3-[6-(3,5-dimethylisoxazol-4-yl)-1-[(1-fluorocyclohexyl)methyl]pyrrolo[3,2-b]pyridin-3-yl]benzenesulfonamide]	< 10000	< 1	–	< 1
Cc1nnc(C)n1-c1cnc2c(-c3ccc(C(=O)O)cc3)cn(CC3CCC(F)(F)CC3)c2c1 [P-0420, 4-[1-[(4,4-difluorocyclohexyl)methyl]-6-(3,5-dimethyl-1,2,4-triazol-4-yl)pyrrolo[3,2-b]pyridin-3-yl]benzoic acid]	< 10000	< 1	10 to 200	–
CC[C@H](c1ccccc1)n1cc(-c2ccc(C(=O)OC)cc2)c2ncc(-c3c(C)noc3C)cc21 [P-0569, methyl 4-[6-(3,5-dimethylisoxazol-4-yl)-1-[(1R)-1-phenylpropyl]pyrrolo[3,2-b]pyridin-3-yl]benzoate]	< 10000	< 1	–	< 1
[2H]C([2H])(C1CCC(F)(F)CC1)n1cc(-c2ccc(N)nc2)c2ncc(-c3c(C)noc3C)cc21 [P-0347, 5-[1-[dideuterio-(4,4-difluorocyclohexyl)methyl]-6-(3,5-dimethylisoxazol-4-yl)pyrrolo[3,2-b]pyridin-3-yl]pyridin-2-amine]	< 10000	< 1	< 1	–
Cc1noc(C)c1-c1cnc2c(-c3cnn(C(F)F)c3)cn([C@H](C)c3ccccn3)c2c1 [P-0515, 4-[3-[1-(difluoromethyl)pyrazol-4-yl]-1-[(1R)-1-(2-pyridyl)ethyl]pyrrolo[3,2-b]pyridin-6-yl]-3,5-dimethyl-isoxazole]	< 10000	< 1	–	< 1
Cc1noc(C)c1-c1cnc2c(-c3ccc(C(=O)O)nc3)cn(CC3(F)CCC(F)(F)CC3)c2c1 [P-0456, 5-[6-(3,5-dimethylisoxazol-4-yl)-1-[(1,4,4-trifluorocyclohexyl)methyl]pyrrolo[3,2-b]pyridin-3-yl]pyridine-2-carboxylic acid]	< 10000	< 1	–	< 1
Cc1noc(C)c1-c1cnc2c(-c3cnn(CC(F)(F)F)c3)cn(CC3CCCCC3)c2c1 [P-0553, 4-[1-(cyclohexylmethyl)-3-[1-(2,2,2-trifluoroethyl)pyrazol-4-yl]pyrrolo[3,2-b]pyridin-6-yl]-3,5-dimethyl-isoxazole]	< 10000	< 1	–	< 1
CC(=O)Nc1ccc(-c2cn(CC3(F)CCCCC3)c3cc(-c4c(C)noc4C)cnc23)cc1 [P-0496, N-[4-[6-(3,5-dimethylisoxazol-4-yl)-1-[(1-fluorocyclohexyl)methyl]pyrrolo[3,2-b]pyridin-3-yl]phenyl]acetamide]	< 10000	< 1	–	< 1
Cc1noc(C)c1-c1cnc2c(-c3ccc(C(C)(C)C)cc3)cn([C@@H](C)c3ccccn3)c2c1 [P-0806, 4-[3-(4-tert-butylphenyl)-1-[(1S)-1-(2-pyridyl)ethyl]pyrrolo[3,2-b]pyridin-6-yl]-3,5-dimethyl-isoxazole]	< 10000	< 1	–	1 to 10
Cc1noc(C)c1-c1cnc2c(-c3cnn(C)c3)cn(C(c3ccccn3)c3ccccn3)c2c1 [P-0593, 4-[1-[bis(2-pyridyl)methyl]-3-(1-methylpyrazol-4-yl)pyrrolo[3,2-b]pyridin-6-yl]-3,5-dimethyl-isoxazole]	< 10000	< 1	–	< 1
Cc1cc(-c2cn(CC3(F)CCCCC3)c3cc(-c4c(C)noc4C)cnc23)ccc1C(=O)O [P-0506, 4-[6-(3,5-dimethylisoxazol-4-yl)-1-[(1-fluorocyclohexyl)methyl]pyrrolo[3,2-b]pyridin-3-yl]-2-methyl-benzoic acid]	< 10000	< 1	–	< 1
Cc1noc(C)c1-c1cnc2c(-c3ccc(C(=O)O)cc3)cn(CC3CCCCCC3)c2c1 [P-0586, 4-[1-(cycloheptylmethyl)-6-(3,5-dimethylisoxazol-4-yl)pyrrolo[3,2-b]pyridin-3-yl]benzoic acid]	< 10000	< 1	–	< 1
Cc1noc(C)c1-c1cnc2c(c1)c(CC1CCC(F)(F)CC1)cn2-c1ccc(C(=O)O)cc1F [P-0442, 4-[3-[(4,4-difluorocyclohexyl)methyl]-5-(3,5-dimethylisoxazol-4-yl)pyrrolo[2,3-b]pyridin-1-yl]-3-fluoro-benzoic acid]	< 10000	< 1	–	< 1
Cc1noc(C)c1-c1cnc2c(-c3ccc(C(=O)O)c(O)c3)cn(CC3CCC(F)(F)CC3)c2c1 [P-0487, 4-[1-[(4,4-difluorocyclohexyl)methyl]-6-(3,5-dimethylisoxazol-4-yl)pyrrolo[3,2-b]pyridin-3-yl]-2-hydroxy-benzoic acid]	< 10000	< 1	–	< 1
Cc1n[nH]c(C)c1-c1cnc2c(-c3cnn(CC(F)(F)F)c3)cn(CC3CCC(F)(F)CC3)c2c1 [P-0440]	< 10000	< 1	–	< 1
[2H]C([2H])(C1CCC(F)(F)CC1)n1cc(C(=O)O)c2ncc(-c3c(C)noc3C)cc21 [P-0459, 1-[dideuterio-(4,4-difluorocyclohexyl)methyl]-6-(3,5-dimethylisoxazol-4-yl)pyrrolo[3,2-b]pyridine-3-carboxylic acid]	< 10000	< 1	–	1 to 10
Cc1noc(C)c1-c1cnc2c(I)cn(CC3CCC(F)(F)CC3)c2c1 [P-0250, 4-[1-[(4,4-difluorocyclohexyl)methyl]-3-iodo-pyrrolo[3,2-b]pyridin-6-yl]-3,5-dimethyl-isoxazole]	< 10000	< 1	< 1	–
Cc1noc(C)c1-c1cnc2c(-c3ccc(CC(=O)O)cc3)cn(CC3CCC(F)(F)CC3)c2c1 [P-0413, 2-[4-[1-[(4,4-difluorocyclohexyl)methyl]-6-(3,5-dimethylisoxazol-4-yl)pyrrolo[3,2-b]pyridin-3-yl]phenyl]acetic acid]	< 10000	< 1	< 1	–
